Measured values published in patent US20100062441A1, “C-MET MUTATIONS AND USES THEREOF” (priority 2007, published 2010).

Columns and labels:
MU melanoma cells [1] = assay: Differentiation of melanoma cells (morphology); type: cell-based, human; conditions: 72 hrs with 5 μM SU11274
Experimental: (§1) Thus SU11274 could induce a differentiated phenotype in a wide variety of melanoma cells melanized, amelanotic, less and more differentiated melanoma cells.
The effect of si RNA against c-Met was also studied on the proliferation and differentiation of MU melanoma cells. […] SU11274 at 5 μM and 10 μM inhibited the growth of melanoma cells by 72% and 88% respectively. The inhibitory effect of SU11274 was more pronounced than si RNA since SU11274 is a potent and selective inhibitor of c-Met activity and function. […] Similar to SU11274 c-Met Si RNA 12 hrs after transfection induced an increase in MITF (4 fold) and several of the melanocyte differentiation antigens tyrosinase (4-fold), gp-100 (2-fold) and MART-1 (2-fold) which have been targets for immunotherapy. The increase in the level of various differentiation proteins was determined by densiometric anaylsis after treatment with c-Met si RNA.

SCCHN cell lines [2] = assay: Viability/growth by MTT and/or Cyquant; type: cell-based, human; conditions: several cell lines
Source text: Specific inhibition of c-Met by small molecule inhibitors can also be determined. […] Both SU11274 (1st generation) and Compound X (3rd generation) were used to test for their respective inhibitory effects on SCCHN cell lines.

SCCHN cell lines [3] = assay: Cell motility and migration; type: cell-based, human
Source text: c-Met is known to have a significant role in cell scattering and possibly metastatic spread (Ren et al., Clin Cancer Res, 11, (17), 6190-7 (2005) and Endo, et al., Hum Pathol, 37, (8), 1111-6 (2006)). Here, the effects of c-Met suppression on cell motility and migration as a surrogate marker for metastatic spread was investigated. […] The degree of downstream modulation varied by cell line.

MM-RU melanoma cells = assay: Differentiation of melanoma cells (morphology); type: cell-based, human; conditions: 72 hrs with 5 μM SU11274
Source text: as §1

MM-MC melanoma cells = assay: Differentiation of melanoma cells (morphology); type: cell-based, human; conditions: 72 hrs with 5 μM SU11274
Source text: as §1

[4] = tested on: reactive oxygen species (ROS) in MU melanoma cells; assay: Reactive oxygen species measurement by DHE immunofluorescence; type: cell-based, human; conditions: 5 μM SU11274 for 12 hrs; HGF 40 ng/ml
Experimental: 5×10^4 MU melanoma cells were plated in 35 mm petri dishes. After 24 hrs MU Melanoma cells were kept in serum free media containing 0.5% BSA with and without 5 μM SU11274 for 12 hrs. Cells were treated with 40 ng/ml HGF for 7.5 min, then treated with DHE 10 μM (molecular probes Inc, Eugene, Oreg.) for 30 min, after which they were visualized under a fluorescent Olympus microscope IX81, 20× objective, ND3 and Rhodamine filter sets. Fluorescence was then quantified using Image J and graphed.
The endogenous levels of reactive oxygen species (ROS) was also analyzed in MU melanoma cells with and without HGF treatment using DHE by fluorescence microscopy. DHE is a redox sensitive probe that has widely been used to detect intracellular superoxide anion. The relative levels of ROS were increased in response to HGF by 47%, and SU11274 decreased the ROS response to HGF to 3%.

MU melanoma cells [5] = assay: Proliferation / growth of melanoma cells; type: cell-based; conditions: Homo sapiens
Experimental: For measuring the effect of SU11274 on growth of melanoma cells, MM-AN, MU, PM-WK, MM-RU, MM-MC and RPM-EP cells were plated at 6×10^4 cells in 60 mm dishes in MEM with 10% serum. After 24 hrs different concentrations of SU11274 were added and after 96 hrs cells were trypsinized and counted in a cell counter (Beckman Coulter). Each data point was repeated in triplicate.
siRNA against c-Met was obtained from Dharmacon (Lafayette, Colo.). Briefly four pooled SiRNA duplexes were transiently transfected into MU melanoma cells by the Dharmacon protocol utilizing Oligofectamine obtained from Invitrogen (Carlsbad, Calif.). Mock transfection was done in parallel using SignalSilence control SiRNA (Cell Signaling Technology) as negative control. For studies on the effect of Si RNA on differentiation proteins MU melanoma cells were transfected with Si RNA as described above and cell lysates were prepared after 12 hrs and immunoblotting performed as described above.
The effect of si RNA against c-Met was also studied on the proliferation and differentiation of MU melanoma cells. […] SU11274 at 5 μM and 10 μM inhibited the growth of melanoma cells by 72% and 88% respectively. […] The increase in the level of various differentiation proteins was determined by densiometric anaylsis after treatment with c-Met si RNA.

In the case of Cc1[nH]c(/C=C2\C(=O)Nc3ccc(S(=O)(=O)N(C)c4cccc(Cl)c4)cc32)c(C)c1C(=O)N1CCN(C)CC1 [SU11274, (3Z)-N-(3-chlorophenyl)-3-({3,5-dimethyl-4-[(4-methylpiperazin-1-yl)carbonyl]-1H-pyrrol-2-yl}methylene)-N-methyl-2-oxo-2,3-dihydro-1H-indole-5-sulfonamide], the “change in morphology / differentiated phenotype” value (MU melanoma cells [1]) was “became very dendritic and differentiated”, the viability/growth (SCCHN cell lines [2]) was “markedly decreased” and the cell motility (SCCHN cell lines [3]) was “marked decrease”. For the same compound, the “change in morphology / differentiated phenotype” value (MM-RU melanoma cells) was “became bipolar, tripolar or multipolar”, the “change in morphology / differentiated phenotype” value (MM-MC melanoma cells) was “became bipolar, tripolar or multipolar” and the “ROS response to HGF” value [4] was 3%. For the same compound, the inhibition at 5 µM (MU melanoma cells [5]; 5 μM) was 72% and the inhibition at 10 µM (MU melanoma cells [5]; 10 μM) was 88%.
